Test results: patent publication US9309242B2, “Substituted pyrido[2,3-b]pyrazines as FGFR kinase inhibitors” (priority 2011, dated 2016)
Counter-ions that a name gives are not always drawn.

Tests used:
[1] = molecular target: FGFR1 (h) (Homo sapiens, UniProt P11362); experiment: FGFR1 (enzymatic assay), TR-FRET; type: biochemical; details: average values if tested multiple times, read-out: FGFR 1 pIC50 (converted)
[2] = molecular target: FGFR2 (h) (Homo sapiens, UniProt P21802); experiment: FGFR2 (enzymatic assay), TR-FRET; type: biochemical; details: enzymatic assay; average values if tested multiple times; read-out: FGFR 2 pIC50 (converted)
Method: In a final reaction volume of 30 μL, FGFR2 (h) (150 ng/ml) was incubated with 50 mM HEPES pH 7.5, 6 mM MnCl2, 1 mM DTT, 0.1 mM Na3VO4, 0.01% Triton-X-100, 500 nM Btn-Flt3 and 0.4 μM ATP in the presence of compound (1% DMSO final).

[3] = molecular target: FGFR3 (h) (Homo sapiens, UniProt P22607); experiment: FGFR3 (enzymatic assay), TR-FRET; type: biochemical; details: average values if tested multiple times, read-out: FGFR 3 pIC50 (converted)
Text: Time-Resolved Fluorescence Resonance Energy Transfer (TR-FRET) signal (ex340 nm.

[4] = molecular target: FGFR4 (h) (Homo sapiens, UniProt P22455); experiment: FGFR4 (enzymatic assay), TR-FRET; type: biochemical; details: FGFR 4 pIC50, enzymatic assay; average values if tested multiple times
[5] = molecular target: KDR (h) (Homo sapiens, UniProt P35968); experiment: KDR (VEGFR2) (enzymatic assay), TR-FRET; type: biochemical; details: average values if tested multiple times, read-out: VEGFR 2 (KDR) pIC50 (converted)
Method: KDR (VEGFR2) (Enzymatic Assay)
In a final reaction volume of 30 μL, KDR (h) (150 ng/ml) was incubated with 50 mM HEPES pH 7.5, 6 mM MnCl2, 1 mM DTT, 0.1 mM Na3VO4, 0.01% Triton-X-100, 500 nM Btn-Flt3 and 3 μM ATP in the presence of compound (1% DMSO final). After incubation for 120 minutes at room temperature the reaction was stopped with 2.27 nM EU-anti P-Tyr, 7 mM EDTA, 31.25 nM SA-XL-665 and 0.02% BSA which was present for 60 minutes at room temperature. Time-Resolved Fluorescence Resonance Energy Transfer (TR-FRET) signal (ex340 nm. Em 620 nm, em 655 nm) was measured afterwards and results are expressed in RFU (Relative Fluorescence Units).

[6] = molecular target: T1, Ba/F3-FGFR1-transfected cells (Homo sapiens, UniProt P11362); experiment: Ba/F3-FGFR1 (minus IL3) cellular proliferation assay, Alamar Blue; type: cell-based
T1 construct: BAF3-FGFR1 (MIN IL3) pIC50; other: minus IL3
Method: (§1) Ba/F3-FGFR1 (Minus IL3 or Plus IL3) (Cellular Proliferation Assay)
(§2) In a 384 well plate, 100 nl of compound dilution in DMSO was sprayed before adding 50 μl cell culture medium (phenol red free RPMI-1640, 10% FBS, 2 mM L-Glutamine and 50 μg/ml Gentamycin) containing 20000 cells per well of Ba/F3-FGFR1-transfected cells. Cells were put in an incubator at 37° C. and 5% CO2. After 24 hours, 10 μl of Alamar Blue solution (0.5 mM K3Fe(CN)6, 0.5 mM K4Fe(CN)6, 0.15 mM Resazurin and 100 mM Phosphate Buffer) was added to the wells, incubated for 4 hours at 37° C. and 5% CO2 before RFU's (Relative Fluorescence Units) (ex. 540 nm., em. 590 nm.) were measured in a fluororescence plate reader.

[7] = test system: Ba/F3-FGFR1-transfected cells; experiment: Ba/F3-FGFR1 (plus IL3) cellular proliferation assay, counterscreen with 10 ng/ml murine IL3; type: cell-based; details: plus IL3 (10 ng/ml murine IL3, counterscreen)
Method: as §1, §2
(§3) As a counterscreen the same experiment was performed in the presence of 10 ng/ml murine IL3.

[8] = molecular target: T2, Ba/F3-FGFR3-transfected cells (Homo sapiens, UniProt P22607); experiment: Ba/F3-FGFR3 (minus IL3) cellular proliferation assay, Alamar Blue; type: cell-based
T2 construct: BAF3-FGFR3 (MIN IL3) pIC50; other: minus IL3
Method: (§4) Ba/F3-FGFR3 (Minus IL3 or Plus IL3) (Cellular Proliferation Assay)
as §2, with “Ba/F3-FGFR3-transfected” for “Ba/F3-FGFR1-transfected”, “reader. […]” for “reader.”

[9] = test system: Ba/F3-FGFR3-transfected cells; experiment: Ba/F3-FGFR3 (plus IL3) cellular proliferation assay, counterscreen with 10 ng/ml murine IL3; type: cell-based; details: plus IL3 (10 ng/ml murine IL3, counterscreen)
Method: as §4
as §2, with “Ba/F3-FGFR3-transfected” for “Ba/F3-FGFR1-transfected”
as §3

[10] = molecular target: T3, Ba/F3-KDR-transfected cells (Homo sapiens, UniProt P35968); experiment: Ba/F3-KDR (minus IL3) cellular proliferation assay, Alamar Blue; type: cell-based
T3 construct: BAF3-KDR (MIN IL3) pIC50; other: minus IL3
Method: (§5) Ba/F3-KDR (Minus IL3 or Plus IL3) (Cellular Proliferation Assay)
as §2, with “n1” for “nl”, “Ba/F3-KDR-transfected” for “Ba/F3-FGFR1-transfected”, “reader. […]” for “reader.”

[11] = test system: Ba/F3-KDR-transfected cells; experiment: Ba/F3-KDR (plus IL3) cellular proliferation assay, counterscreen with 10 ng/ml murine IL3; type: cell-based; details: plus IL3 (10 ng/ml murine IL3, counterscreen)
Method: as §5
as §2, with “n1” for “nl”, “Ba/F3-KDR-transfected” for “Ba/F3-FGFR1-transfected”
as §3

[12] = molecular target: Ba/F3-FGFR4-transfected cells (Homo sapiens, UniProt P22455); experiment: Ba/F3-FGFR4 cellular proliferation assay, Alamar Blue; type: cell-based
Method: Ba/F3-FGFR4 (Cellular Proliferation Assay)
as §2, with “n1” for “nl”, “Ba/F3-FGFR4-transfected” for “Ba/F3-FGFR1-transfected”

Chain of Ba/F3-FGFR4-transfected cells (P22455 whole entry, change not shown): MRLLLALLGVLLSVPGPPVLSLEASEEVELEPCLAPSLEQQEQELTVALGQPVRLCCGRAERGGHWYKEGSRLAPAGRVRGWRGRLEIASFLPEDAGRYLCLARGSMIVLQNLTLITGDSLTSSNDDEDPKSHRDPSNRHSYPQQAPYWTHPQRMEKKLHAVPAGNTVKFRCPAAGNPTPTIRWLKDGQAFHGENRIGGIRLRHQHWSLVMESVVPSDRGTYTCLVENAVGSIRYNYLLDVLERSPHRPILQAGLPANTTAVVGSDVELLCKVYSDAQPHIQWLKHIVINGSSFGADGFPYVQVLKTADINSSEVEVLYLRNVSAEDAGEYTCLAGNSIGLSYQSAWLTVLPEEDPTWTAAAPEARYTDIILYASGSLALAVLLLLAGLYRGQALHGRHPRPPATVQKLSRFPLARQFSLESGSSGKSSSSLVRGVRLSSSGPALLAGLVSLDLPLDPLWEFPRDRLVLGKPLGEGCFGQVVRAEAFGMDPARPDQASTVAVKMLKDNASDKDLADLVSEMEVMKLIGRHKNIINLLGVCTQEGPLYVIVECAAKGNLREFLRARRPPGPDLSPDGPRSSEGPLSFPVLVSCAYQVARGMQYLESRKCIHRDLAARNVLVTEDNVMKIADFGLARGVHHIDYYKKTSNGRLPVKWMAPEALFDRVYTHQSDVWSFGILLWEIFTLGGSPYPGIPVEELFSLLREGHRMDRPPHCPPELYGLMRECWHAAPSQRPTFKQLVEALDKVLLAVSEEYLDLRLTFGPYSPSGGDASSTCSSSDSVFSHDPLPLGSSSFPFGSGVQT
T2 sequence (P22607 whole entry, change not shown): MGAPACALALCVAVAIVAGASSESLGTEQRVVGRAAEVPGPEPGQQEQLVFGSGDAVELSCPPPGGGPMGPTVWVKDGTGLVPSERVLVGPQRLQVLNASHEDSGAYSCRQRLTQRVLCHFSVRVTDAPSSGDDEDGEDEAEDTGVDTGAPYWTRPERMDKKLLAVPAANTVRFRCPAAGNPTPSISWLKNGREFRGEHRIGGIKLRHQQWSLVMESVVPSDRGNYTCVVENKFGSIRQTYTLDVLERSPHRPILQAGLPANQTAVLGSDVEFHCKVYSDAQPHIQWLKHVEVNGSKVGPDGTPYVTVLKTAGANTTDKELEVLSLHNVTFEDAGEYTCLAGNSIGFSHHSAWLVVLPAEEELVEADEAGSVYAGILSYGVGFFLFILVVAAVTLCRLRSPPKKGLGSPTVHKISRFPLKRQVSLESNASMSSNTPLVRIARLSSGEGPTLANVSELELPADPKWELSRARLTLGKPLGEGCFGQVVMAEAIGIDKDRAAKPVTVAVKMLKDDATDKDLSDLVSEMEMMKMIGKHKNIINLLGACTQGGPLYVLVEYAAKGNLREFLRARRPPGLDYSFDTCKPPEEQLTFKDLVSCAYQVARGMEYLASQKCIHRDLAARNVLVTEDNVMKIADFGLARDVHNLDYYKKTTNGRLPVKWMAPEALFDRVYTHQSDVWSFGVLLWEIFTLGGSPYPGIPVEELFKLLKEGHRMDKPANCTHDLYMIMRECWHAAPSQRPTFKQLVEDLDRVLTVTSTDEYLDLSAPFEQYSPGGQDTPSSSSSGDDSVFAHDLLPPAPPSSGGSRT
T3 sequence (P35968 whole entry, change not shown): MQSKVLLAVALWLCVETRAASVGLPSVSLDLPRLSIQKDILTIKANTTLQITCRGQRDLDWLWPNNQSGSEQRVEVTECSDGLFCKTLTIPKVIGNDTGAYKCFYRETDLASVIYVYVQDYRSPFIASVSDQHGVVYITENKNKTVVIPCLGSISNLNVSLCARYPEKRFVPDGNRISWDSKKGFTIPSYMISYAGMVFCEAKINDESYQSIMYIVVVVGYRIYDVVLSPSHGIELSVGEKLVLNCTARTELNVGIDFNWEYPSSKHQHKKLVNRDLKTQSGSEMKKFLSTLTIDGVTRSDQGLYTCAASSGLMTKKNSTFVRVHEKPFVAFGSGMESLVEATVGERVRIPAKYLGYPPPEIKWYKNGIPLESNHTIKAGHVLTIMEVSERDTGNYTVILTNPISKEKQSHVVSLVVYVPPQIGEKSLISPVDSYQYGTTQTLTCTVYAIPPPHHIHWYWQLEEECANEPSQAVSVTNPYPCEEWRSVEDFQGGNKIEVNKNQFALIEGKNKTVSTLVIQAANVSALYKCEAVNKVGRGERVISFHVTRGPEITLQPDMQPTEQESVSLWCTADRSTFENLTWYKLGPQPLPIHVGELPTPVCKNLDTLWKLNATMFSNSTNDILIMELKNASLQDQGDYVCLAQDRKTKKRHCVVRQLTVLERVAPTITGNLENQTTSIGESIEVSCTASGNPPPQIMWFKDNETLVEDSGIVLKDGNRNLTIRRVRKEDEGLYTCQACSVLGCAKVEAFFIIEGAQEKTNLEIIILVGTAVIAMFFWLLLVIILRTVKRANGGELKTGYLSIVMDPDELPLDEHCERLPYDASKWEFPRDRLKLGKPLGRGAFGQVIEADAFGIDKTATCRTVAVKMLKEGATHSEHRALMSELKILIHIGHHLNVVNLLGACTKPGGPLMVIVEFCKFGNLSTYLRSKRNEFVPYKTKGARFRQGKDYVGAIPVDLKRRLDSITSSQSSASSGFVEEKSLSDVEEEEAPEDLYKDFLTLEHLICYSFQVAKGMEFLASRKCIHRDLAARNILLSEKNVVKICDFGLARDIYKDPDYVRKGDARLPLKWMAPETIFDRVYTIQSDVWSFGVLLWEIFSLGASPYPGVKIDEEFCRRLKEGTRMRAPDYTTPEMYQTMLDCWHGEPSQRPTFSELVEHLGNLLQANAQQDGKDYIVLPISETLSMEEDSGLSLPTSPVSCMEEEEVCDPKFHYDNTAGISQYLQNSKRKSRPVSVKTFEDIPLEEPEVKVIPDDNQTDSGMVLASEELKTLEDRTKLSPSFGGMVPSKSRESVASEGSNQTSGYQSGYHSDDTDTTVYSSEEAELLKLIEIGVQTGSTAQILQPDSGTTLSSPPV
Chain of FGFR4 (h) (P22455 22-802): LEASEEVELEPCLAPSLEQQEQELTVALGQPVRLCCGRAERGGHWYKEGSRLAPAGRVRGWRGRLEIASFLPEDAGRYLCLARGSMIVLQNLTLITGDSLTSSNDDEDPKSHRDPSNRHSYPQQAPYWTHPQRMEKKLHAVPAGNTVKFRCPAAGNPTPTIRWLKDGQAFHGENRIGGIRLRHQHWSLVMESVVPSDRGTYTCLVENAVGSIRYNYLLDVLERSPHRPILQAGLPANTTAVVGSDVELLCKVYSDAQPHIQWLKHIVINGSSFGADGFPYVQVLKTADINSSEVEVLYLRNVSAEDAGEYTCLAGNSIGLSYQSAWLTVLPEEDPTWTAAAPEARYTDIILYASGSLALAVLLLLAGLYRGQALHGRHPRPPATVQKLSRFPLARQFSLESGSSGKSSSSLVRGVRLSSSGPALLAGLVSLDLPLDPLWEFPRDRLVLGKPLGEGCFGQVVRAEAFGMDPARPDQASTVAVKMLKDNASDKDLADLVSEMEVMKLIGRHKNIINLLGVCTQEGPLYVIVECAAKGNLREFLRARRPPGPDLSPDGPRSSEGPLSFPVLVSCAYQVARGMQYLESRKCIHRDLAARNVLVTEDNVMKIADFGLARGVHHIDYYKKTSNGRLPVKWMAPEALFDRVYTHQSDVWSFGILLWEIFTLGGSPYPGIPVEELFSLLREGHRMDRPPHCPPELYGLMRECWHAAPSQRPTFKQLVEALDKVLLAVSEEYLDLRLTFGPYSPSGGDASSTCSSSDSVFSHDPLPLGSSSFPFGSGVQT
T1 sequence (P11362 whole entry, change not shown): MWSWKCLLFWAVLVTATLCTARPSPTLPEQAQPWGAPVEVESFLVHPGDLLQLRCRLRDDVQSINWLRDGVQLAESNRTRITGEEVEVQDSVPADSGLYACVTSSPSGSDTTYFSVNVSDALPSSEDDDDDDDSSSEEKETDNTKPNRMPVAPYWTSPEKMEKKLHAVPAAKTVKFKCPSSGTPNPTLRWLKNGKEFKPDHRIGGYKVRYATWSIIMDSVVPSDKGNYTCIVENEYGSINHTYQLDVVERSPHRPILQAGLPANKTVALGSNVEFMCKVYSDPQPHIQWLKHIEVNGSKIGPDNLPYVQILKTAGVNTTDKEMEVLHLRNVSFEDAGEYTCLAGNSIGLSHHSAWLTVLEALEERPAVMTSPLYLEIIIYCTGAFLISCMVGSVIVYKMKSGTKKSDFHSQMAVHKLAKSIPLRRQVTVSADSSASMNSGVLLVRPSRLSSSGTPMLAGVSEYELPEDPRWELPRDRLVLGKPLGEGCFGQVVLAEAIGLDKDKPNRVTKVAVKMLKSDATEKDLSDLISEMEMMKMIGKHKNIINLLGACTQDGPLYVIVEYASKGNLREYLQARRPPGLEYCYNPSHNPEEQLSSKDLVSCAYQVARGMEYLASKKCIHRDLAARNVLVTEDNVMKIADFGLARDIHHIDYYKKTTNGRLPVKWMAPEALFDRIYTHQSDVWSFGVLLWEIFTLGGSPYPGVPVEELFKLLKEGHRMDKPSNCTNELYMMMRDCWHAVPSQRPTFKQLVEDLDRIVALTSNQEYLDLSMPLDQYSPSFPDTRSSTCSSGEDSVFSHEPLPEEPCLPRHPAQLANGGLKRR

Row | SMILES | IC50 [1] [nM] | IC50 [2] [nM] | IC50 [3] [nM] | IC50 [4] [nM] | IC50 [5] [nM] | BAF3-FGFR1 (MIN IL3) pIC50 [6] | BAF3-FGFR1 (PLUS IL3) pIC50 [7] | BAF3-FGFR3 (MIN IL3) pIC50 [8] | BAF3-FGFR3 (PLUS IL3) pIC50 [9] | BAF3-KDR (MIN IL3) pIC50 [10] | BAF3-KDR (PLUS IL3) pIC50 [11] | BAF3-FGFR4 pIC50 [12]
1 | COc1cc(OC)c(F)c(N(Cc2ncc[nH]2)c2ccc3ncc(-c4cnn(C)c4)nc3n2)c1 [23-fumarate salt] | 0.479 | 1.51 | ~0.891 | 0.794 | 5.13 | 8.85 | <5 | ~8.67 | <5 | 6.67 | <5 | 7.94
2 | COc1cc(OC)c(F)c(N(Cc2ncc[nH]2)c2ccc3ncc(-c4cnn(C)c4)nc3n2)c1 [23-hydrochloric acid salt] | 0.437 | 1.41 | 0.776 | 0.851 | 6.76 | 8.81 | <5 | ~8.58 | <5 | 6.68 | <5 | 7.98
3 | COc1cc(OC)c(F)c(N(Cc2ncc[nH]2)c2ccc3ncc(-c4cnn(C)c4)nc3n2)c1 [23-lactate salt] | 0.501 | 1.38 | 0.955 | 1.1 | 6.61 | 8.29 | <5 | ~8.14 | <5 | 6.83 | <5 | 8.13
4 | COc1cc(OC)c(F)c(N(Cc2ncc[nH]2)c2ccc3ncc(-c4cnn(C)c4)nc3n2)c1 [23-phosphate salt] | 0.468 | 1.91 | 1.1 | 0.977 | 7.94 | 8.83 | <5 | ~8.64 | <5 | 7.03 | <5 | 8.15
5 | COc1cc(OC)cc(N(Cc2ncc[nH]2)c2ccc3ncc(-c4cnn(C)c4)nc3n2)c1 [24-fumarate salt] | 0.631 | 1.26 | 0.851 | 1.2 | 11.7 | 8.46 | <5 | ~8.61 | <5 | 6.38 | <5 | 7.85
6 | COc1cc(OC)cc(N(Cc2ncc[nH]2)c2ccc3ncc(-c4cnn(C)c4)nc3n2)c1 [24-hydrochloric acid salt] | 0.776 | 1.41 | 1.02 | 1.2 | 7.24 | 8.16 | <5 | 7.96 | <5 | 5.92 | <5 | 7.77
7 | COc1cc(OC)cc(N(Cc2ncc[nH]2)c2ccc3ncc(-c4cnn(C)c4)nc3n2)c1 [24-phosphate salt] | 0.708 | 1.23 | 0.832 | 1.02 | 14.5 | 8.42 | <5 | 7.74 | <5 | 6.05 | <5 | 7.47
8 | COc1cc(OC)cc(N(Cc2ncc[nH]2)c2ccc3ncc(-c4cnn(C)c4)nc3n2)c1 [24-sulphate salt] | 0.55 | 1.29 | ~0.912 | 0.759 | 13.2 | 8.29 | <5 | ~8.15 | <5 | 6.15 | <5 | 7.57
9 | COc1cc(OC)c(F)c(N(CC2CCC(=O)N2)c2ccc3ncc(-c4cnn(C)c4)nc3n2)c1F (stereo not drawn) [Compound 48] | 1.26 | 3.24 | 1.7 | 2.19 | 24.5 | 8.00 | <5 | ~7.94 | <5 | 6.03 | <5 | 6.89
